Laboratory results published in the supplement of paper PMC10307832.

What was measured:
Experiment in all cases: relative viability (nuclei count vs DMSO), 5 days (fraction); higher = more cells survive
[1] = compound: CC1(C)CCC(CN2CCN(c3ccc(C(=O)NS(=O)(=O)c4ccc(NCC5CCOCC5)c([N+](=O)[O-])c4)c(Oc4cnc5[nH]ccc5c4)c3)CC2)=C(c2ccc(Cl)cc2)C1 [Venetoclax] + CC(C)C[C@H](NC(=O)[C@H](Cc1ccccc1)NC(=O)c1cnccn1)B(O)O [Bortezomib] (partner 0.002 µM)
Procedure, shortened: (§1)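 Relative viability is defined as nuclei in treated wells over nuclei in vehicle wells. Duplicate plates were run and medians reported. Lung cancer cell lines in 1536-well plates were dosed by pin tool one day after seeding, with one drug or with a fixed anchor-drug dose plus five library-drug doses (not always all listed) in √10 steps, and nuclei were counted after 5 days.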

[2] = compound: CC1(C)CCC(CN2CCN(c3ccc(C(=O)NS(=O)(=O)c4ccc(NCC5CCOCC5)c([N+](=O)[O-])c4)c(Oc4cnc5[nH]ccc5c4)c3)CC2)=C(c2ccc(Cl)cc2)C1 [Venetoclax] + C[C@]1(O)C[C@@H](c2nc(-c3ccc4ccc(-c5ccccc5)nc4c3)c3c(N)nccn32)C1 [Linsitinib] (partner 1 µM)
Procedure, shortened: as §1

[3] = compound: Cn1cnc2c(F)c(Nc3ccc(Br)cc3Cl)c(C(=O)NOCCO)cc21 [Selumetinib] + CC(=O)c1c(C)c2cnc(Nc3ccc(N4CCNCC4)cn3)nc2n(C2CCCC2)c1=O [Palbociclib] (partner 0.5 µM)
Procedure, shortened: as §1

[4] = compound: Cn1cnc2c(F)c(Nc3ccc(Br)cc3Cl)c(C(=O)NOCCO)cc21 [Selumetinib] + Cc1nc(Nc2ncc(C(=O)Nc3c(C)cccc3Cl)s2)cc(N2CCN(CCO)CC2)n1 [Dasatinib] (partner 0.075 µM)
Procedure, shortened: as §1

| Cell Line | relative viability ([1]; first compound 0.01 µM) | relative viability ([1]; first compound 0.03162 µM) | relative viability ([1]; first compound 0.1 µM) | relative viability ([1]; first compound 0.3162 µM) | relative viability ([1]; first compound 1 µM) | relative viability ([2]; first compound 0.01 µM) | relative viability ([2]; first compound 0.03162 µM) | relative viability ([2]; first compound 0.1 µM) | relative viability ([2]; first compound 0.3162 µM) | relative viability ([2]; first compound 1 µM) | relative viability ([3]; first compound 0.02 µM) | relative viability ([3]; first compound 0.06325 µM) | relative viability ([3]; first compound 0.2 µM) | relative viability ([3]; first compound 0.6325 µM) | relative viability ([4]; first compound 0.02 µM) | relative viability ([4]; first compound 0.06325 µM) | relative viability ([4]; first compound 0.2 µM) | relative viability ([4]; first compound 0.6325 µM) |
| --- | --- | --- | --- | --- | --- | --- | --- | --- | --- | --- | --- | --- | --- | --- | --- | --- | --- | --- |
| LU99A | 1.13 | 1.32 | 0.925 | 1.19 | 1.23 | 0.482 | 0.604 | 0.505 | 0.56 | 0.55 | 0.427 | 0.418 | 0.375 | 0.425 | 0.58 | 0.643 | 0.509 | 0.6 |
| LXF-289 | 1.03 | 0.966 | 1 | 1.01 | 0.87 | 0.973 | 0.955 | 0.895 | 0.932 | 0.856 | 0.554 | 0.529 | 0.468 | 0.468 | 0.223 | 0.315 | 0.324 | 0.311 |
| NCI-H23 | 0.95 | 0.952 | 1.06 | 1.07 | 0.9 | 0.646 | 0.648 | 0.527 | 0.467 | 0.533 | 0.494 | 0.393 | 0.354 | 0.314 | 0.808 | 0.644 | 0.5 | 0.397 |
| NCI-H322M | 1.37 | 1.18 | 1.27 | 1.2 | 1.2 | 0.913 | 0.916 | 0.889 | 0.891 | 0.852 | 0.403 | 0.413 | 0.459 | 0.448 | 0.248 | 0.237 | 0.24 | 0.263 |
| NCI-H441 | 0.651 | 0.91 | 0.532 | 0.451 | 0.476 | 0.445 | 0.716 | 0.568 | 0.482 | 0.511 | 0.168 | 0.154 | 0.157 | 0.139 | 0.602 | 0.363 | 0.41 | 0.307 |
| NCI-H460 | 1.06 | 1.06 | 1.06 | 1.03 | 0.904 | 0.827 | 0.829 | 0.665 | 0.632 | 0.726 | 0.147 | 0.142 | 0.0907 | 0.0517 | 0.332 | 0.272 | 0.155 | 0.128 |
| NCI-H520 | 0.657 | 0.708 | 0.431 | 0.628 | 0.494 | 1.04 | 0.935 | 0.911 | 0.969 | 0.902 | 0.211 | 0.236 | 0.237 | 0.258 | 0.261 | 0.29 | 0.278 | 0.306 |
| NCI-H647 | 1.08 | 1.2 | – | 0.944 | 1.02 | 0.996 | 1.15 | – | 1.4 | 1.02 | 0.339 | 0.353 | 0.354 | 0.364 | 0.187 | 0.2 | 0.167 | 0.154 |
| NCI-H650 | 0.671 | 0.792 | – | 0.873 | 0.817 | 0.912 | 0.843 | – | 1.04 | 0.754 | 0.395 | 0.571 | 0.516 | 0.521 | 0.518 | 0.578 | 0.65 | 0.534 |
| NCI-H661 | 0.722 | 0.762 | 0.717 | 0.799 | 0.646 | 0.676 | 0.662 | 0.551 | 0.703 | 0.567 | 0.415 | 0.384 | 0.418 | 0.382 | 0.902 | 0.821 | 0.805 | 0.731 |
| NCI-H727 | 0.938 | 1.19 | 0.833 | 0.862 | 0.888 | 0.334 | 0.344 | 0.201 | 0.293 | 0.296 | 0.473 | 0.517 | 0.489 | 0.423 | 0.308 | 0.299 | 0.267 | 0.279 |
| NCI-H838 | 0.949 | 0.957 | 0.73 | 0.801 | 0.797 | 1.11 | 1.03 | 1.01 | 1.03 | 0.938 | 0.206 | 0.191 | 0.201 | 0.203 | 0.275 | 0.254 | 0.304 | 0.267 |
| NCI-H1355 | 1.27 | 1.23 | 1.2 | 1.11 | 1.18 | 0.812 | 0.814 | 0.778 | 0.792 | 0.753 | 0.315 | 0.284 | 0.266 | 0.241 | 0.717 | 0.631 | 0.543 | 0.413 |
| NCI-H1437 | 0.451 | 0.572 | 0.475 | 0.42 | 0.492 | 0.92 | 1.08 | 0.975 | 0.952 | 0.932 | 0.319 | 0.292 | 0.258 | 0.224 | 0.334 | 0.231 | 0.197 | 0.215 |
| NCI-H1651 | 1.02 | 0.952 | 1.03 | 0.976 | 0.885 | 0.926 | 1.13 | 0.938 | 0.962 | 0.995 | 0.512 | 0.501 | 0.475 | 0.489 | 0.387 | 0.378 | 0.402 | 0.362 |
| NCI-H1666 | 0.773 | 0.931 | 0.676 | 0.706 | 0.593 | 0.909 | 0.864 | 0.731 | 0.759 | 0.745 | 0.669 | 0.649 | 0.699 | 0.668 | 0.759 | 0.831 | 0.837 | 0.729 |
| NCI-H1734 | 0.815 | 1.07 | 0.921 | 0.946 | 0.914 | 0.894 | 0.911 | 0.803 | 0.855 | 0.865 | 0.304 | 0.332 | 0.36 | 0.313 | 0.506 | 0.531 | 0.466 | 0.549 |
| NCI-H1755 | 0.993 | 1.01 | 0.911 | 0.965 | 0.943 | 0.978 | 1 | 0.848 | 0.964 | 0.969 | 0.41 | 0.437 | 0.444 | 0.422 | 0.417 | 0.388 | 0.407 | 0.476 |
